# Key:
# [1] = Drug penetration in rat assessed as Unbound brain-to-plasma concentration ratio; format: ADME, cell-free; conditions: read-out: K(p,uu,brain)
# [2] = Lipophilicity, log D of the compound; format: physicochemical; conditions: octanol/water
# [3] = Volume of distribution at steady state in rat at 1 mg/kg, iv; format: ADME, organism-based; conditions: in vivo, read-out: Vdss
# [4] = Oral bioavailability in rat at 5 mg/kg; format: ADME, organism-based; conditions: in vivo
# [5] = Ratio of drug concentration in brain to plasma in rat at 10 mg/kg, po; format: ADME, organism-based; conditions: read-out: BPR
# [6] = Oral bioavailability in dog at 5 mg/kg; format: ADME, organism-based, Canis lupus familiaris; conditions: in vivo
# [7] = Oral bioavailability in human at 5 mg/kg; format: ADME, organism-based; conditions: in vivo
# [8] = Kinetic solubility of compound at pH 6.5; format: physicochemical; conditions: buffer, read-out: Kinetic_solubility
# [9] = Apparent permeability across apical to basolateral side in dog RRCK cells; format: ADME, cell-based, Canis lupus familiaris, MDCKII-LE; conditions: MDCK
# [10] = Volume of distribution at steady state in human at 1 mg/kg, iv; format: ADME, organism-based; conditions: in vivo, read-out: Vdss
# [11] = Drug penetration in human assessed as Unbound brain-to-plasma concentration ratio; format: ADME, cell-free; conditions: read-out: K(p,uu,brain)
# [12] = Lipophilicity, log D of the compound by shake flask method; format: physicochemical; conditions: octanol/water
# [13] = Volume of distribution at steady state in dog at 1 mg/kg, iv; format: ADME, organism-based, Canis lupus familiaris; conditions: in vivo, read-out: Vdss
# [14] = Drug penetration in Non human primate assessed as unbound brain-to-plasma concentration ratio; format: ADME, cell-free; conditions: primates, read-out: K(p,uu,brain)
smiles,measurement,setting,value
Cc1cn(-c2ccc3n(c2=O)CCN([C@@H](C)[C@@H]2CC[C@H](c4cc(F)c(C(F)(F)F)c(F)c4)O2)C3=O)cn1,Kp uu,[1],0.08
Cc1cn(-c2ccc3n(c2=O)CCN([C@@H](C)[C@@H]2CC[C@H](c4ccc(C(F)(F)F)c(F)c4F)O2)C3=O)cn1,Kp uu,[1],0.5
Cc1cn(-c2ccc3n(c2=O)CCN([C@@H](C)[C@@H]2CC[C@H](c4cc(F)c(Cl)cc4C(F)(F)F)O2)C3=O)cn1,logD,[2],5
same,Vd,[3],0.8 L/kg
same,Kp uu,[1],0.7
same,bioavailability,[4],67%
same,Kp,[5],1.5
same,bioavailability,[6],88%
same,bioavailability,[7],60%
same,solubility kinetic,[8],44.8 µM
same,Papp A→B,[9],5.8 ×10⁻⁶ cm/s
same,Vd,[10],1.3 L/kg
same,Kp uu,[11],1
same,logD,[12],4.2
same,Vd,[13],0.7 L/kg
Cc1cn(-c2ccc3n(c2=O)CCN([C@@H](C)[C@@H]2CC[C@H](c4ccc(C(F)(F)F)cc4)O2)C3=O)cn1,Kp uu,[1],0.5
Cc1cn(-c2ccc3n(c2=O)CCN([C@@H](C)[C@@H]2CC[C@H](c4ccc(Cl)cc4C(F)(F)F)O2)C3=O)cn1,Kp uu,[1],0.5
same,Kp uu,[14],1

# — ChEMBL document CHEMBL5512689, “Discovery of Clinical Candidate PF-06648671: A Potent γ-Secretase Modulator for the Treatment of Alzheimer's Disease” (J Med Chem, 2024)
